The results in this text go back to ChEMBL document CHEMBL4339191 (J Med Chem, 2019).

In data set [1] the target is T1, Aldo-keto reductase family 1 member C1 (Homo sapiens, UniProt Q04828).
T1 sequence (Q04828 whole entry): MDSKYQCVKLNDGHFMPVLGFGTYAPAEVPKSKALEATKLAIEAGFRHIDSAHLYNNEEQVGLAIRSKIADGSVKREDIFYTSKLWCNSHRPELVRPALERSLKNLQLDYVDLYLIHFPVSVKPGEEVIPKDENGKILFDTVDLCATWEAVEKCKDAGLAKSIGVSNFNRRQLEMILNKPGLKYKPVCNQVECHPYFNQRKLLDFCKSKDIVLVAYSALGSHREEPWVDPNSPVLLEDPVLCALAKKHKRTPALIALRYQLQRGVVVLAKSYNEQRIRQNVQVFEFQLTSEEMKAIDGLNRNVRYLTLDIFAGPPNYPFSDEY
In words: Inhibition of recombinant human AKR1C1 expressed in Escherichia coli BL21 […] at 100 uM using S-tetralol as substrate in presence of NADP+ by UV-spectrophotometric method relative to control.

In the next data set the target is T2, AKR1C2 (Homo sapiens, UniProt P52895).
T2 sequence (P52895 whole entry): T1 sequence (Q04828 whole entry) with T38V, R47H, L54V, C87S, V151M, R170H, Q172L
In words: in vitro. As to conditions: probe S-tetralol; call rule not given here.

In the next data set the target is T3, AKR1C1 (Homo sapiens, UniProt Q04828).
T3 sequence (Q04828 whole entry): T1 sequence (Q04828 whole entry)
In words: in vitro. The conditions noted are these: probe S-tetralol.

Data set [2] deals with T4, Aldo-keto reductase family 1 member C3 (Homo sapiens, UniProt P42330).
T4 sequence (P42330 whole entry): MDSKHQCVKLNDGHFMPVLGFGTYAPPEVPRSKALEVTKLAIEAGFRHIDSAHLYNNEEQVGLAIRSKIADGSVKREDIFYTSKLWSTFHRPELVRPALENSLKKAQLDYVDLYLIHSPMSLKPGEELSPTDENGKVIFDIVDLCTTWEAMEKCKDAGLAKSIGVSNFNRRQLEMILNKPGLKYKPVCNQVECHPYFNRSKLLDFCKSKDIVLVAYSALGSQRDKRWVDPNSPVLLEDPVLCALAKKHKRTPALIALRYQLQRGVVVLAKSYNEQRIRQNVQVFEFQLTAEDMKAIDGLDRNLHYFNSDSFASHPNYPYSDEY
Description: Inhibition of recombinant full-length human N-terminal His6-tagged AKR1C3 expressed in Escherichia coli BL21 (DE3) using phenanthrenequinone as substrate in presence of NADPH generating system

Positions count from the first letter of the chain named.

Description for AKR1C1: Inhibition of recombinant human AKR1C1 expressed in Escherichia coli BL21 (D3) at 200 uM using S-tetralol as substrate in presence of NADP+ by UV-spectrophotometric method relative to control
Description for AKR1C2: Inhibition of recombinant human AKR1C2 expressed in Escherichia coli BL21 (D3) at 200 uM using S-tetralol as substrate in presence of NADP+ by UV-spectrophotometric method relative to control

Consider `CC(C)=CCc1cc(/C=C/C(=O)O)cc(C(=O)NCc2ccc(N(C)C)cc2)c1`, for which the “inhibition (INH)” value in data set [1] is recorded as “Not Active”. In the case of `CC(C)=CCc1cc(/C=C/C(=O)O)cc(C(=O)NCc2ccc(C)cc2)c1`, on AKR1C2, at 200 µM the inhibition was 66.5%.

In turn, `CC(C)=CCc1cc(/C=C/C(=O)O)cc(C(=O)NCc2cccc(OC(F)(F)F)c2)c1` gave an inhibition at 200 µM against AKR1C1 of 10.6%. For the compound `COc1ccc(CNC(=O)c2cc(/C=C/C(=O)O)cc(CC=C(C)C)c2)cc1`, the “inhibition (INH)” value in data set [1] was “Not Active”. As for `CC/C=C\C[C@H]1C(=O)CC[C@@H]1CC(=O)O` [JASMONIC ACID], in data set [2], affinity was put at a Ki of 24 µM.
